Non-standard residues stand in square brackets, D forms with d. Residues, ends and D or L forms follow the SMILES beside them. Groups on a side chain read outwards from the residue. *: point of attachment. dPhe(2,4-Cl2) = N[C@H](Cc1ccc(Cl)cc1Cl)C(=O)O; PEG8 = NCCOCCOCCOCCOCCOCCOCCOCCOCCC(=O)O; Pro(4,4-F2) = O=C(O)[C@@H]1CC(F)(F)CN1; dAla(2-furyl) = N[C@H](Cc1ccco1)C(=O)O; Arg(Me) = CNC(=N)NCCC[C@H](N)C(=O)O; Palmitoyl = CCCCCCCCCCCCCCCC(=O)*; Hyp = O=C(O)[C@@H]1C[C@@H](O)CN1; AllylGly = C=CC[C@H](N)C(=O)O; PEG4 = NCCOCCOCCOCCOCCC(=O)O; Lauroyl = CCCCCCCCCCCC(=O)*; Pip = O=C(O)[C@@H]1CCCCN1; Ac6c = NC1(C(=O)O)CCCCC1; azaGly = NNC(=O)O
How the values were obtained:
[1] = molecular target: T1, human kiss1 receptor (GPR54) (Homo sapiens, UniProt Q969F8); assay: Kiss1 receptor (GPR54) binding activity of agonists, FRET detection in NFAT-bla CHO-K1 cells; type: cell-based; conditions: GPR54; measured according to the method of effect Embodiment 1; preliminary data; read-out: Preliminary measurement data (GPR54) EC50
T1 construct: host or cells: NFAT-bla CHO-K1 cells (Chinese hamster ovary), purchased recombinant cell line
Description: Effect Embodiment 1 Determination of Kiss1 Receptor (GPR54) Binding Activity of Kiss1 Receptor (GPR54) Agonist
The binding activity test of each compound from the above the embodiments with kiss1 receptor (GPR54) was performed by fluorescence energy resonance transfer (FRET) detection technology to detect EC50 values of polypeptides and peptide analogs. The cells used in this experiment were NFAT-bla CHO-K1 cells (k1720, invitrogen, thermosher) that express human kiss1 receptor (GPR54). The specific operations were as follows:
Day 1: Seeding Cells in Plate
1. Microscope (CKX41, OLYMPUS), object lens×4 times, ocular lens×10 times. The cells were ensured in a good condition.
2. Digesting the cells, adding 3 ml of 0.05% pancreatin into a culture dish; cells were placed in a 37° C., 5% CO2 incubator for 2 minutes (Thermo Fisher). After the cells became round under the microscope, 7 ml of culture medium was added. The formula of culture medium was as follows: DMEM 90%, dialzedfbS10, NEAA 0.1 mM, HEPES 25 mM, Penicillin 100 U/ml, Streptomycin 100 μm/ml, pH7.3. After blowing and stirring, it was transferred to 15 mL centrifuge tube (430790, Corning). Centrifuge at 1000 rpm for 5 min (5810R, Eppendorf) and the supernatant was discard.
3. Adding 7 mL of culture medium (DMEM+0.1% BSA), it was pipetting into single cell suspension, after counting with Bio-RAD counter, the cell density was adjusted to 312,500 cells/ml.
4. Cells were inoculated into 384 well plates at 32 μL per well, and the cell number was controlled at 10000 cells/well. 32 μl of culture medium was added into the blank control.
Day 2: Dosing and Data Analysis
1) The compound to be tested was prepared into 50 mM working solution with DMSO.
2) 40 μl of the working solution of the compound to be tested was added into column 2 of row A-H of U-shaped 96-well plate (3797, comings), and 60 μl of DMSO was added into column 3-11. 20 μl of compound solution was sucked from the second column to the third column with a multichannel pipette blowing and stirring evenly; 20 μl of compound solution was absorbed from the third column with a multichannel pipette, then added into the fourth column, blowed and stirred to mix well; the compound was serially diluted 4-fold to a total of 10 concentrations. Column 1 and column 12 of 96-well plates were supplemented with 40 μl DMSO.
2. Intermediate Plate Configuration
1) AU-shaped 96-well plate was used, 199 μL of culture medium (DMEM+0.1% BSA) was added to each well, 1 μL of diluted compound (or DMSO) was sucked from 1000× compound plate and added into the 96-well plate at the corresponding position, blowed and stirred to mix well.
2) Homemade positive compounds and compounds to be tested were added. The cell culture plate was took out from the incubator and cells state was observed under microscope. Diluted compound in the intermediate plate or DMSO was added into the cell, 8 μl per well.
3) Cells were cultured in 37° C. and 5% CO2 for 4 hours.
3. The Substrate was Added to Detect the Binding of the Drug to the Receptor
1) 1 μmol/L CCF-4AM solution and buffer solution B, C, D were equilibrated to room temperature. LiveBLAZER™-FRET B/G Loading Kit (K1095, thermo Fisher) containing CCF-4AM and solution B, solution C, solution D were also available from Invitrogen (K1157, thermo Fisher).
2) 6× loading solution was prepared: 6 μl of CCF-4AM dissolved solution A, 60 μl of solution b, 904 μl of solution c, and 30 μl of solution D were pipetted into EP tube, blowed and stirred to mix well.
3) 8 μl of the above-mentioned liquid was sucked with a multichannel pipette, added into a 96-well plate, and incubated for 2 hours at room temperature.
4) The PerkinElmer detector was used to detect the luminous signals of each hole. FI mode, λex=409 nm, λem1=460 nm, λem2=530 nm.
4. Data Processing Using Graphpad Prism 5 (GraphPad Software. Inc)
Effective rate %=(Signal−Min)/(Max−Min)×100%.

[2] = Plasma stability, LC-MS/MS; type: in vitro ADME; conditions: rat plasma, 37° C., final concentration 500 ng/ml, time points 0 minutes, 1, 2 and 4 hours; calculated half-life; read-out: Rat plasma (T½ (h)) (converted)
Description: Effect Embodiment 2 Experimental Data on Plasma Stability of Some Compounds
1. Preparation of 50 mM Phosphate Buffer:
The 5.750 g Na2HPO4, 1.141 g NaH2PO4. and 4.095 g NaCl (Shanghai Titan) weighed was dissolved in 1000 mL ultrapure water and the pH was adjusted to 7.4 to give 50 mM phosphate buffer containing 70 mM NaCl. The prepared phosphoric acid buffer solution was stored in the refrigerator at 4° C. and was valid for one week.
2. Preparation of compound stock solution:
1). 5 mg/mL of test compound: 5 mg of compound was weighted and dissolved in 1 mL of DMSO.
2). 20 mM control: 2.728 mg of Fuka was dissolved in 0.5 mL of DMSO. 3.878 mg of benzalkonium bromide was dissolved in 0.5 mL of DMSO (Amresco).
3. Preparation of experimental plasma:
The frozen plasma (human: Shanghai wise chemistry; Rats and mice: Shanghai Sciple-Bikai; Dogs and monkeys: Suzhou Xishan Zhongke) were taken out of the −80° C. refrigerator, immediately placed in a 37° C. water bath, slightly shaken to melt it, then the thawed plasma was poured into a centrifuge tube, centrifuged at 3000 rpm for 8 min, and the supernatant was taken for experiments. The pH value of plasma was detected by a pH Meter & Sensor (METTLER TOLEDO). Only plasma with a pH value between 7.4 and 8 was used in the experiment. The plasma was placed on an ice bath for later use.
4. Preparation of administration solution:
1). 125 µg/ml test compound solution: 5 μL of 5 mg/mL test compound (see step 2) was added into 195 μL DMSO; 500 μM control solution: 20 mM control stock solution (see step 2) was added to 195 μL DMSO.
2). 0.5% BSA phosphate buffer solution: 0.05 g BSA was added to 10 mL phosphate buffer solution (see step 1);
3). 5 µg/ml of test compound administration solution: 40 μL of 125 μg/mL of test compound solution was added into 960 μL 0.5% BSA phosphate buffer solution, stirred and mixed evenly, and the administration solution was preheated in a 37° C. water bath for 5 minutes.
20 μM reference substance administration solution: 40 μL of 500 μM reference substance administration solution was added into 960 μL 0.5% BSA phosphate buffer solution, stirred and mixed evenly, and the administration solution was preheated in a 37° C. water bath for 5 minutes.
5. 10 μL of 5 μg/mL of the test compound and 20 μM of the control substance administration solution were respectively added to the wells set at different time points (0 minutes, 1 hour, 2 hours and 4 hours) on the 96-well plate, and the number of duplicate samples was 3.
6. 500 μL of ACN (IS) containing 5% FA was added to the well set at 0 minute hour, then 90 μL of plasma was added, after mixing, sealing film was pasted and placed at 4° C. (number of duplicate samples was 3).
7. 90 μL of plasma was added to the wells with set time points of 1 hour, 2 hours and 4 hours respectively, the number of duplicate samples was 3, and timing was started (the final concentration of the test compound was 500 ng/ml; The control was 2 μM).
9. All samples (0 minutes, 1 hour, 2 hours and 4 hours) at different time points on a 96-well plate were shaken for 10 minutes at 600 rpm/min on an oscillator (MTS 2/4, IKA), and then the samples were centrifuged for 15 minutes at 5594×g in a centrifuge (Multifuge×3R, thermo Fisher).
10. 150 μL of supernatant was taken from the centrifuged sample and sent to LC-MS/MS for analysis (conventional polypeptide LC-MS/MS analysis method).

T1 sequence (Q969F8 whole entry): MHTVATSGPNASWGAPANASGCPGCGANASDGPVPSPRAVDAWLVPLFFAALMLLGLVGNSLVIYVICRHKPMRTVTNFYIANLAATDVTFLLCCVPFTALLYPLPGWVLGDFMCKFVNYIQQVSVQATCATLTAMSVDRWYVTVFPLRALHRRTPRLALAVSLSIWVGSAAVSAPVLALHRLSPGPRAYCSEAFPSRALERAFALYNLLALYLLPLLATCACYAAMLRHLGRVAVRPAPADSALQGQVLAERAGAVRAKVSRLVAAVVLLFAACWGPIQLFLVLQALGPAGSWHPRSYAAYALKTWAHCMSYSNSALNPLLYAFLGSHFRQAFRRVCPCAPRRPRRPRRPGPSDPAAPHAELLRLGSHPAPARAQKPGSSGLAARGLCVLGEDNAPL

SMILES: CNC(=N)NCCC[C@H](NC(=O)[C@H](CC(C)C)NC(=O)C1(NC(=O)[C@H](Cc2ccccc2)NC(=O)[C@@H](NC(=O)[C@H](CC(N)=O)NC(=O)[C@@H]2CC(F)(F)CN2C(=O)[C@@H](Cc2ccco2)NC(C)=O)[C@@H](C)O)CCCCC1)C(=O)N[C@@H](Cc1c[nH]c2ccccc12)C(N)=O [YA-201, Ac-(D-2Fua)-Pro(diF)-Asn-Thr-Phe-A6c-Leu-Arg(Me)-Trp-NH2] (Ac-[dAla(2-furyl)][Pro(4,4-F2)]NTF[Ac6c]L[Arg(Me)]W-NH2)
- EC50 [1]: 0.39 nM
- half-life at 500 ng/ml [2]: 2.65 h

SMILES: CNC(=N)NCCC[C@H](NC(=O)[C@H](CC(C)C)NC(=O)NNC(=O)[C@H](Cc1ccccc1)NC(=O)[C@@H](NC(=O)[C@H](CC(N)=O)NC(=O)C1(NC(=O)[C@@H](Cc2ccco2)NC(C)=O)CCCCC1)[C@@H](C)O)C(=O)N[C@@H](Cc1c[nH]c2ccccc12)C(N)=O [YA-271, Ac-(D-2Fua)-A6c-Asn-Thr-Phe-azaGly-Leu-Arg(Me)-Trp-NH2] (Ac-[dAla(2-furyl)][Ac6c]NTF[azaGly]L[Arg(Me)]W-NH2)
- EC50 [1]: 0.025 nM
- half-life at 500 ng/ml [2]: 15.6 h

SMILES: CNC(=N)NCCC[C@H](NC(=O)[C@H](CC(C)C)NC(=O)NNC(=O)[C@H](Cc1ccccc1)NC(=O)[C@@H](NC(=O)[C@H](CC(N)=O)NC(=O)[C@@H]1CCCCN1C(=O)[C@@H](Cc1ccc(Cl)cc1Cl)NC(C)=O)[C@@H](C)O)C(=O)N[C@@H](Cc1c[nH]c2ccccc12)C(N)=O [YA-182, Ac-[D-Phe(2,4-DiCl)]—(S-Pip)-Asn-Thr-Phe-azaGly-Leu-Arg(Me)-Trp-NH2] (Ac-[dPhe(2,4-Cl2)][Pip]NTF[azaGly]L[Arg(Me)]W-NH2)
- EC50 [1]: 0.021 nM
- half-life at 500 ng/ml [2]: 5.32 h

SMILES: CCCCCCCCCCCC(=O)NCCOCCOCCOCCOCCC(=O)NCCOCCOCCOCCOCCC(=O)N[C@H](Cc1ccc(O)cc1)C(=O)N1C[C@H](O)C[C@H]1C(=O)N[C@@H](CC(N)=O)C(=O)N[C@H](C(=O)N[C@@H](Cc1ccccc1)C(=O)NNC(=O)N[C@@H](CC(C)C)C(=O)N[C@@H](CCCNC(=N)NC)C(=O)N[C@@H](Cc1c[nH]c2ccccc12)C(N)=O)[C@@H](C)O [YA-296, Dodecanoyl-PEG4-PEG4-D-Tyr-Hyp-Asn-Thr-Phe-azaGly-Leu-Arg(Me)-Trp-NH2] ({Lauroyl-PEG4-PEG4}-[dY][Hyp]NTF[azaGly]L[Arg(Me)]W-NH2)
- EC50 [1]: 0.011 nM
- half-life at 500 ng/ml [2]: 2.73 h

SMILES: CNC(=N)NCCC[C@H](NC(=O)[C@H](CC(C)C)NC(=O)NNC(=O)[C@H](Cc1ccccc1)NC(=O)[C@@H](NC(=O)[C@H](CC(N)=O)NC(=O)[C@@H]1C[C@@H](O)CN1C(=O)[C@@H](Cc1ccc(O)cc1)NC(=O)CCOCCOCCOCCOCCNC(C)=O)[C@@H](C)O)C(=O)N[C@@H](Cc1c[nH]c2ccccc12)C(N)=O [YA-150, Ac-PEG4-(D-Tyr)-Hyp-Asn-Thr-Phe-azaGly-Leu-Arg(Me)-Trp-NH2] (Ac-[PEG4][dY][Hyp]NTF[azaGly]L[Arg(Me)]W-NH2)
- EC50 [1]: 0.004 nM
- half-life at 500 ng/ml [2]: 6.67 h

SMILES: C=CC[C@H](NC(=O)[C@H](Cc1ccccc1)NC(=O)[C@@H](NC(=O)[C@H](CC(N)=O)NC(=O)[C@@H]1C[C@@H](O)CN1C(=O)[C@@H](Cc1ccc(O)cc1)NC(=O)CCOCCOCCOCCOCCOCCOCCOCCOCCNC(=O)CCCCCCCCCCCCCCC)[C@@H](C)O)C(=O)N[C@@H](CC(C)C)C(=O)N[C@@H](CCCNC(=N)NC)C(=O)N[C@@H](Cc1c[nH]c2ccccc12)C(N)=O [YA-360, Palm-PEG8-Gly-Gly-(D-Tyr)-Hyp-Asn-Thr-Phe-A1g-Leu-Arg(Me)-Trp-NH2] ({Palmitoyl-PEG8}-[dY][Hyp]NTF[AllylGly]L[Arg(Me)]W-NH2)
- EC50 [1]: 0.006 nM
- half-life at 500 ng/ml [2]: 79.9 h

SMILES: CCCCCCCCCCCCCCCC(=O)NCCOCCOCCOCCOCCOCCOCCOCCOCCC(=O)NCCCC[C@H](NC(C)=O)C(=O)NCC(=O)NCC(=O)N[C@H](Cc1ccc(O)cc1)C(=O)N1C[C@H](O)C[C@H]1C(=O)N[C@@H](CC(N)=O)C(=O)N[C@H](C(=O)N[C@@H](Cc1ccccc1)C(=O)NNC(=O)N[C@@H](CC(C)C)C(=O)N[C@@H](CCCNC(=N)NC)C(=O)N[C@@H](Cc1c[nH]c2ccccc12)C(N)=O)[C@@H](C)O [YA-157, Ac-Lys(Palm-PEG8)-Gly-Gly-(D-Tyr)-Hyp-Asn-Thr-Phe-azaGly-Leu-Arg(Me)-Trp-NH2] (Ac-K([PEG8-Palmitoyl])GG[dY][Hyp]NTF[azaGly]L[Arg(Me)]W-NH2)
- EC50 [1]: 0.03 nM
- half-life at 500 ng/ml [2]: 6.67 h
